Laboratory results from the NIST ThermoML archive (doi:10.1021/acs.jced.8b00591).
± gives the expanded uncertainty stated by the source.

Experiment: xn = mol fraction of the nth substance listed
Conditions: 101.3 kPa, Liquid; for viscosity: Falling or rolling sphere viscometry; for mass density: Vibrating tube method

CCn1cc[n+](C)c1.O=S(=O)([N-]S(=O)(=O)C(F)(F)F)C(F)(F)F + COC(=O)OC
Conditions	mass density [kg/m3]	viscosity [mPa·s]
288.15 K, x1 = 0.0989	1199.15 ± 2.9	1.579 ± 0.035
288.15 K, x1 = 0.1983	1282.85 ± 3.1	2.913 ± 0.065
288.15 K, x1 = 0.2973	1342.57 ± 3.3	4.862 ± 0.11
288.15 K, x1 = 0.3958	1387.69 ± 3.4	7.561 ± 0.17
288.15 K, x1 = 0.496	1423.97 ± 3.5	11.21 ± 0.25
288.15 K, x1 = 0.5954	1452.55 ± 3.5	16.89 ± 0.37
288.15 K, x1 = 0.6967	1476.87 ± 3.6	22.56 ± 0.5
288.15 K, x1 = 0.7982	1497.52 ± 3.6	30.07 ± 0.66
288.15 K, x1 = 0.9004	1514.5 ± 3.7	38.55 ± 0.85
288.15 K, x1 = 1	1528.55 ± 3.7	49.41 ± 1.1
293.15 K, x1 = 0.0989	1193.1 ± 2.9	1.451 ± 0.032
293.15 K, x1 = 0.1983	1277.11 ± 3.1	2.637 ± 0.058
293.15 K, x1 = 0.2973	1337.02 ± 3.2	4.332 ± 0.095
293.15 K, x1 = 0.3958	1382.28 ± 3.4	6.635 ± 0.15
293.15 K, x1 = 0.496	1418.62 ± 3.5	9.698 ± 0.21
293.15 K, x1 = 0.5954	1447.28 ± 3.5	14.58 ± 0.32
293.15 K, x1 = 0.6967	1471.62 ± 3.6	19.02 ± 0.42
293.15 K, x1 = 0.7982	1492.37 ± 3.6	25.12 ± 0.56
293.15 K, x1 = 0.9004	1509.39 ± 3.7	31.87 ± 0.71
293.15 K, x1 = 1	1523.47 ± 3.7	40.36 ± 0.89
298.15 K, x1 = 0.0989	1187.03 ± 2.9	1.348 ± 0.03
298.15 K, x1 = 0.1983	1271.35 ± 3.1	2.4 ± 0.053
298.15 K, x1 = 0.2973	1331.47 ± 3.2	3.884 ± 0.085
298.15 K, x1 = 0.3958	1376.85 ± 3.4	5.878 ± 0.13
298.15 K, x1 = 0.496	1413.28 ± 3.4	8.484 ± 0.19
298.15 K, x1 = 0.5954	1442.02 ± 3.5	12.53 ± 0.28
298.15 K, x1 = 0.6967	1466.42 ± 3.6	16.66 ± 0.37
298.15 K, x1 = 0.7982	1487.23 ± 3.6	21.25 ± 0.47
298.15 K, x1 = 0.9004	1504.28 ± 3.7	26.71 ± 0.59
298.15 K, x1 = 1	1518.39 ± 3.7	33.52 ± 0.74
303.15 K, x1 = 0.0989	1180.95 ± 2.9	1.25 ± 0.028
303.15 K, x1 = 0.1983	1265.59 ± 3.1	2.195 ± 0.048
303.15 K, x1 = 0.2973	1325.91 ± 3.2	3.507 ± 0.077
303.15 K, x1 = 0.3958	1371.44 ± 3.3	5.241 ± 0.12
303.15 K, x1 = 0.496	1407.96 ± 3.4	7.472 ± 0.16
303.15 K, x1 = 0.5954	1436.78 ± 3.5	10.8 ± 0.24
303.15 K, x1 = 0.6967	1461.24 ± 3.6	14.52 ± 0.32
303.15 K, x1 = 0.7982	1482.09 ± 3.6	18.37 ± 0.4
303.15 K, x1 = 0.9004	1499.19 ± 3.6	22.66 ± 0.5
303.15 K, x1 = 1	1513.34 ± 3.7	28.35 ± 0.62
308.15 K, x1 = 0.0989	1174.86 ± 2.9	1.162 ± 0.026
308.15 K, x1 = 0.1983	1259.83 ± 3.1	2.019 ± 0.044
308.15 K, x1 = 0.2973	1320.35 ± 3.2	3.177 ± 0.07
308.15 K, x1 = 0.3958	1366.03 ± 3.3	4.706 ± 0.1
308.15 K, x1 = 0.496	1402.66 ± 3.4	6.64 ± 0.15
308.15 K, x1 = 0.5954	1431.55 ± 3.5	9.382 ± 0.21
308.15 K, x1 = 0.6967	1456.07 ± 3.5	12.62 ± 0.28
308.15 K, x1 = 0.7982	1476.98 ± 3.6	16.22 ± 0.36
308.15 K, x1 = 0.9004	1494.12 ± 3.6	19.42 ± 0.43
308.15 K, x1 = 1	1508.3 ± 3.7	24.15 ± 0.53
313.15 K, x1 = 0.0989	1168.75 ± 2.9	1.086 ± 0.024
313.15 K, x1 = 0.1983	1254.07 ± 3	1.865 ± 0.041
313.15 K, x1 = 0.2973	1314.81 ± 3.2	2.904 ± 0.064
313.15 K, x1 = 0.3958	1360.63 ± 3.3	4.247 ± 0.093
313.15 K, x1 = 0.496	1397.36 ± 3.4	5.946 ± 0.13
313.15 K, x1 = 0.5954	1426.34 ± 3.5	8.189 ± 0.18
313.15 K, x1 = 0.6967	1450.93 ± 3.5	10.96 ± 0.24
313.15 K, x1 = 0.7982	1471.88 ± 3.6	14.22 ± 0.31
313.15 K, x1 = 0.9004	1489.06 ± 3.6	17.21 ± 0.38
313.15 K, x1 = 1	1503.28 ± 3.7	20.76 ± 0.46
318.15 K, x1 = 0.0989	1162.63 ± 2.8	1.016 ± 0.022
318.15 K, x1 = 0.1983	1248.3 ± 3	1.729 ± 0.038
318.15 K, x1 = 0.2973	1309.26 ± 3.2	2.661 ± 0.058
318.15 K, x1 = 0.3958	1355.23 ± 3.3	3.831 ± 0.084
318.15 K, x1 = 0.496	1392.08 ± 3.4	5.358 ± 0.12
318.15 K, x1 = 0.5954	1421.14 ± 3.5	7.249 ± 0.16
318.15 K, x1 = 0.6967	1445.79 ± 3.5	9.578 ± 0.21
318.15 K, x1 = 0.7982	1466.8 ± 3.6	12.43 ± 0.27
318.15 K, x1 = 0.9004	1484.02 ± 3.6	15.16 ± 0.33
318.15 K, x1 = 1	1498.27 ± 3.6	17.9 ± 0.39
323.15 K, x1 = 0.0989	1156.5 ± 2.8	0.954 ± 0.021
323.15 K, x1 = 0.1983	1242.54 ± 3	1.608 ± 0.035
323.15 K, x1 = 0.2973	1303.72 ± 3.2	2.452 ± 0.054
323.15 K, x1 = 0.3958	1349.85 ± 3.3	3.512 ± 0.077
323.15 K, x1 = 0.496	1386.81 ± 3.4	4.857 ± 0.11
323.15 K, x1 = 0.5954	1415.92 ± 3.4	6.332 ± 0.14
323.15 K, x1 = 0.6967	1440.67 ± 3.5	8.381 ± 0.18
323.15 K, x1 = 0.7982	1461.74 ± 3.6	10.9 ± 0.24
323.15 K, x1 = 0.9004	1479 ± 3.6	13.29 ± 0.29
323.15 K, x1 = 1	1493.28 ± 3.6	15.93 ± 0.35
328.15 K, x1 = 0.0989	1150.34 ± 2.8	0.898 ± 0.02
328.15 K, x1 = 0.1983	1236.76 ± 3	1.501 ± 0.033
328.15 K, x1 = 0.2973	1298.19 ± 3.2	2.268 ± 0.05
328.15 K, x1 = 0.3958	1344.47 ± 3.3	3.224 ± 0.071
328.15 K, x1 = 0.496	1381.55 ± 3.4	4.421 ± 0.097
328.15 K, x1 = 0.5954	1410.75 ± 3.4	5.588 ± 0.12
328.15 K, x1 = 0.6967	1435.57 ± 3.5	7.456 ± 0.16
328.15 K, x1 = 0.7982	1456.69 ± 3.5	9.61 ± 0.21
328.15 K, x1 = 0.9004	1474 ± 3.6	11.68 ± 0.26
328.15 K, x1 = 1	1488.31 ± 3.6	14.26 ± 0.31
